The data set deals with db/db mice. In words: db/db mice model of type 2 diabetes, chronic treatment. It is filed as in vivo, mouse. From the text:
The aim was to determine the activity of IB(s) peptides and all-D retro-inverso IB(s) peptides and variants thereof in the treatment of Diabetes Type 2, particularly to determine the effect of chronic treatment with XG-102 (SEQ ID NO: 233) in the db/db mice model of type 2 diabetes by evaluating fasting blood glucose levels every third day (28 days)
a) Materials and Methods • i) Animals • A total of twenty (20) male db/db mice (8 weeks old) were obtained from Charles River (Germany). Upon arrival, animals were group housed (n=6-7/group) and offered regular rodent chow (Altromin standard #1324 chow; C. Petersen, Ringsted, Denmark) and water ad libitum unless otherwise stated. • The mice were housed under a 12:12 L/D cycle (lights on at 4:00 and lights off at 16:00) and in temperature and humidity controlled rooms. • ii) Groups and Randomization • On day −4, mice were randomized according to blood glucose level (fasted; blood glucose measured on Biosen S line analyzer (EKF diagnostic, Germany) to participate in one of the following drug treatment groups (n=6): • 1) Vehicle control, S.C. (physiological saline) • 2) XG-102 (SEQ ID NO: 233); 1 mg/kg; s.c. • 3) XG-102 (SEQ ID NO: 233); 10 mg/kg; s.c • All doses listed were calculated for the free-base. Drug purity: 95.28%, peptide content: 78.0%. All compounds were administered sub-cutaneously (s.c.) in a volume of 3 ml/kg. The formulation instructions for vehicle control and XG-102 (SEQ ID NO: 233) were as follows: • First, XG-102 (SEQ ID NO: 233) was dissolved in the vehicle. The formulations (concentrations of 0.33 and 3.3 mg/ml, corresponding to the doses of 1 and 10 mg/kg, respectively) were prepared according to the procedure detailed below. Concentrations were calculated and expressed taking into account test items purity and peptide content (multiplier coefficient was 1.346). • Preparation of a stock solution: the freeze-dried test compound XG-102 (SEQ ID NO: 233) is thawed for one hour minimum and prepared as a stock solution in the vehicle at 1 mM (corresponding to 3.823 mg/mL). Aliquots are prepared for each treatment day and stored at approximately −80° C. Dilutions of this stock solution to the required concentrations are performed on each treatment day; • Storage of the stock solution: at approximately −80° C.; • Storage of the diluted preparations: at room temperature for 24 hours maximum. • Prior to solubilisation, the powder was stored at −20° C. The stability of the stock solution is 3 months at approximately −80° C.; the stability of the diluted formulations for animal dosing is 24 hours at room temperature. Unused diluted material could be stored for up to 7 days if kept at 4-8° C.
c) Experimental Procedure • Following 8 days of acclimatization the mice were treated daily at 08.00 AM for 21 days by SC dosing 8 hours prior to lights out at 04.00 PM according to the outline groups. […] Mice were stratified into two sub-teams of n=6-7 and subsequently the metabolic characterisation were performed on study days 71-72. • iii) Adipokine Panel • Groups 1+3: On three occasions (study days 57, 66 and 108) blood was collected from the tail vein using EDTA coated hematocrite tubes (100 μl). Following centrifugation of blood the plasma was collected and stored at −20° C. until measurement. Then, the following panel of adipokines/cytokines was determined using Luminex based 7-plex: leptin, resistin, MCP-1, PAI-1, TNF, insulin and interleukin-6 (IL-6). • iv) Termination • Groups 1+3 (day 111): The following organs were excised and weighed:
inguinal subcutaneous fat, epididymal fat, retroperitoneal fat, brain, liver, kidney, spleen and heart. All organs described above were samples in 4% PFA for possible future histo-pathological examination. Also, pancreas (en bloc) was sampled for possible stereological and imunohistochemical analysis, and eyes were sampled for possible later analysis of retinopathy. Group 2 (day 28): No tissues or plasma were collected.

Here are results for one substance from patent US10023615B2, “Efficient transport into white blood cells” (priority 2008, dated 2018).

Ends that are not written are not given here.

Regarding “dqsrpvqpflnIttprkprpprrrqrrkkrg (DQSRPVQPFLNLTTPRKPRPPRRRQRRKKRG; not fully specified (some residues); printed as dqsrpvqpflnIttprkprpprrrqrrkkrg) [XG-102]”, under “1 mg/kg, 28 days of dosing”, the “body weight vs vehicle” value is given as “no effect” and the “fasting blood glucose vs vehicle” value was “no effect”. Besides, for the setting “10 mg/kg”, the “dosing time until blood glucose effect evident” value is 14 days and the “fasting blood glucose plateau” value is listed as “approximately 5 mmol/L”. Besides, under “10 mg/kg s.c. daily for 21 days, wash-out to day 111”, the “fasting blood glucose vs vehicle” value was “clear and significant (p<0.001) decrease”. For the setting “10 mg/kg, day 111”, the “tissue weight of brain, spleen and heart” value is listed as “no significant effects”; the “tissue weight of fat pads at termination” value is “a significant decrease of epididymal (p<0.05) and retroperitoneal (p<0.01) fat mass”; the “tissue weight of kidney and liver” value is “a significant decrease of kidney (p<0.05) and liver (p<0.01) mass”. The “body weight vs vehicle” value (10 mg/kg, from day 28 to day 111) is “clear and significant (p<0.001) prevention of body weight increase”. Also, the “general observations: sedation” value (acute dosing period) is listed as “no signs of sedation”. Also, the “reaction of subcutaneous tissue at injection site” value (group B (1 mg/kg s.c. daily)) is “mild nodular fibrosis was observed”. In addition, the “reaction of subcutaneous tissue at injection site” value (high dose (10 mg/kg s.c. daily), after approximately two weeks) is reported as “nodular fibrosis was observed in the subcutaneous tissue”.
